According to patent US8802597B2, “Herbicidal pyrimidines” (E I du Pont de Nemours and Company, priority 2003, dated 2014):

Tests used:
Format in all cases: in vivo
[1] = tested on: rice (Oryza sativa); experiment: Test B flooded paddy test; details: Flood, scale 0 to 100
Summary of the method: (§1)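 Visual injury scoring (0 = no effect, 100 = complete control) versus controls made 13 to 15 days after treatment in the greenhouse. Test species were grown in flooded paddy to the 2-leaf stage: rice, barnyardgrass, umbrella sedge, duck salad.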

[2] = tested on: duck salad (Heteranthera limosa); experiment: Test B flooded paddy test; details: Flood, scale 0 to 100
Summary of the method: as §1

[3] = tested on: umbrella sedge (Cyperus difformis); experiment: Test B flooded paddy test; details: Flood, scale 0 to 100
Summary of the method: as §1

[4] = tested on: barnyardgrass (Echinochloa crus-galli); experiment: Test B flooded paddy test; details: Flood, scale 0 to 100
Summary of the method: as §1

[5] = tested on: corn (Zea mays); experiment: Test B pre/postemergence; details: for Corn plant response rating: Postemergence; for Plant response rating, Corn: Preemergence
Description: (§2) Seeds selected from barnyardgrass (Echinochloa crus-galli), Surinam grass (Brachiaria decumbens), cocklebur (Xanthium strumarium), corn (Zea mays), crabgrass (Digitaria sanguinalis), giant foxtail (Setaria faberii), lambsquarters (Chenopodium album), morningglory (Ipomoea coccinea), pigweed (Amaranthus retroflexus), velvetleaf (Abutilon theophrasti), and wheat (Triticum aestivum) were planted and treated preemergence with test chemicals formulated in a non-phytotoxic solvent mixture which included a surfactant.
(§3) At the same time, plants selected from these crop and weed species and also blackgrass (Alopecurus myosuroides) and wild oat (Avena fatua) were treated with postemergence applications of test chemicals formulated in the same manner. Plants ranged in height from 2 to 18 cm (1- to 4-leaf stage) for postemergence treatments. Plant species in the flooded paddy test consisted of rice (Oryza sativa), umbrella sedge (Cyperus difformis), duck salad (Heteranthera limosa) and barnyardgrass (Echinochloa crus-galli) grown to the 2-leaf stage for testing. Treated plants and controls were maintained in a greenhouse for 13 to 15 days, after which time all species were compared to controls and visually evaluated. Plant response ratings, summarized in Table B, are based on a scale of 0 to 100 where 0 is no effect and 100 is complete control. A dash (-) response means no test result.

[6] = tested on: cocklebur (Xanthium strumarium); experiment: Test B pre/postemergence; details: for Cocklebur plant response rating: Postemergence; for Plant response rating, Cocklebur: Preemergence
Description: as §2, §3

[7] = tested on: velvetleaf (Abutilon theophrasti); experiment: Test B pre/postemergence; details: for Velvetleaf plant response rating: Postemergence; for Plant response rating, Velvetleaf: Preemergence
Description: as §2, §3

[8] = tested on: morningglory (Ipomoea coccinea); experiment: Test B pre/postemergence; details: for Morningglory plant response rating: Postemergence; for Plant response rating, Morningglory: Preemergence
Description: as §2, §3

[9] = tested on: Surinam grass (Brachiaria decumbens); experiment: Test B pre/postemergence; details: for Surinam Grass plant response rating: Postemergence; for Plant response rating, Surinam Grass: Preemergence
Description: as §2, §3

[10] = tested on: giant foxtail (Setaria faberii); experiment: Test B pre/postemergence; details: for Foxtail, Giant plant response rating: Postemergence; for Plant response rating, Foxtail, Giant: Preemergence
Description: as §2, §3

[11] = tested on: pigweed (Amaranthus retroflexus); experiment: Test B pre/postemergence; details: for Pigweed plant response rating: Postemergence; for Plant response rating, Pigweed: Preemergence
Description: as §2, §3

[12] = tested on: barnyardgrass (Echinochloa crus-galli); experiment: Test B pre/postemergence; details: for Barnyardgrass plant response rating: Postemergence; for Plant response rating, Barnyardgrass: Preemergence
Description: as §2, §3

[13] = tested on: lambsquarters (Chenopodium album); experiment: Test B pre/postemergence; details: for Lambsquarters plant response rating: Postemergence; for Plant response rating, Lambsquarters: Preemergence
Description: as §2, §3

[14] = tested on: wheat (Triticum aestivum); experiment: Test B pre/postemergence; details: for Wheat plant response rating: Postemergence; for Plant response rating, Wheat: Preemergence
Description: as §2, §3

[15] = tested on: crabgrass (Digitaria sanguinalis); experiment: Test B pre/postemergence; details: for Crabgrass plant response rating: Postemergence; for Plant response rating, Crabgrass: Preemergence
Description: as §2, §3

[16] = tested on: velvetleaf (Abutilon theophrasti); experiment: Test A pre/postemergence
Summary of the method: (§4)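 Pre/post greenhouse screen; loam/sand soil; solvent + surfactant formulation; pre = directed soil spray at planting, post = 1–2 leaf plants, 2–10 cm; ~10 d; visual 0–100 rating vs untreated.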

[17] = tested on: redroot pigweed (Amaranthus retroflexus); experiment: Test A pre/postemergence
Summary of the method: as §4

[18] = tested on: barnyardgrass (Echinochloa crus-galli); experiment: Test A pre/postemergence
Summary of the method: as §4

[19] = tested on: giant foxtail (Setaria faberi); experiment: Test A pre/postemergence
Summary of the method: as §4

[20] = tested on: morningglory (Ipomoea spp.); experiment: Test A pre/postemergence
Summary of the method: as §4

[21] = tested on: crabgrass (Digitaria sanguinalis); experiment: Test A pre/postemergence
Summary of the method: as §4

[22] = tested on: wild oat (Avena fatua); experiment: Test B postemergence; details: scale 0 to 100 (0 no effect, 100 complete control)
Summary of the method: (§5)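 Scores reflect visual comparison with untreated controls, where 0 means no effect and 100 complete control. Plants stayed 13 to 15 days in the greenhouse after pre- or postemergence treatment with compounds carried in a non-phytotoxic solvent and surfactant.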

[23] = tested on: blackgrass (Alopecurus myosuroides); experiment: Test B postemergence; details: scale 0 to 100 (0 no effect, 100 complete control)
Summary of the method: as §5

[24] = 62 g ai/ha, scale 0 to 100 (0 no effect, 100 complete control)
[25] = 125 g ai/ha, scale 0 to 100 (0 no effect, 100 complete control)
[26] = 62 g ai/ha, scale 0 to 100, 0 no effect, 100 complete control
[27] = Postemergence, 125 g ai/ha, 0 to 100 scale (0 no effect, 100 complete control)
[28] = Postemergence, 500 g ai/ha, 0 to 100 scale (0 no effect, 100 complete control)
[29] = Preemergence, 125 g ai/ha, 0 to 100 scale where 0 is no effect and 100 is complete control, approximately ten days
[30] = Preemergence, 500 g ai/ha, 0 to 100 scale where 0 is no effect and 100 is complete control, approximately ten days

With `COC(=O)c1nc(-c2ccc(F)cc2)nc(N)c1Br` [Compound 92] the “Plant response rating, Rice” value ([1]; 125 g ai/ha) was 0, the “Plant response rating, Rice” value ([1]; 500 g ai/ha) was 0 and the “Plant response rating, Ducksalad” value ([2]; 125 g ai/ha) was 80. For the same molecule, the “Plant response rating, Ducksalad” value ([2]; 500 g ai/ha) was 90, the “Plant response rating, Sedge, Umbrella” value ([3]; 125 g ai/ha) was 80 and the “Plant response rating, Sedge, Umbrella” value ([3]; 500 g ai/ha) was 90. For the same molecule, the “Plant response rating, Barnyardgrass” value ([4]; 125 g ai/ha) was 0, the “Plant response rating, Barnyardgrass” value ([4]; 500 g ai/ha) was 0 and the “Corn plant response rating” value [5, 24] was 0. For the same molecule, the “Corn plant response rating” value [5, 25] was 0, the “Plant response rating, Corn” value [5, 26] was 0 and the “Plant response rating, Corn” value [5, 25] was 0. The “Cocklebur plant response rating” value [6, 24] was 60, the “Cocklebur plant response rating” value [6, 25] was 80 and the “Plant response rating, Cocklebur” value [6, 26] was 40. The “Plant response rating, Cocklebur” value [6, 25] was 50, the “Velvetleaf plant response rating” value [7, 24] was 50 and the “Velvetleaf plant response rating” value [7, 25] was 60. For the same molecule, the “Plant response rating, Velvetleaf” value [7, 26] was 50, the “Plant response rating, Velvetleaf” value [7, 25] was 70 and the “Morningglory plant response rating” value [8, 24] was 50. The “Morningglory plant response rating” value [8, 25] was 60, the “Plant response rating, Morningglory” value [8, 26] was 0 and the “Plant response rating, Morningglory” value [8, 25] was 0. The “Surinam Grass plant response rating” value [9, 24] was 0, the “Surinam Grass plant response rating” value [9, 25] was 10 and the “Plant response rating, Surinam Grass” value [9, 26] was 0. For the same molecule, the “Plant response rating, Surinam Grass” value [9, 25] was 0, the “Foxtail, Giant plant response rating” value [10, 24] was 20 and the “Foxtail, Giant plant response rating” value [10, 25] was 30. For the same molecule, the “Plant response rating, Foxtail, Giant” value [10, 26] was 0, the “Plant response rating, Foxtail, Giant” value [10, 25] was 10 and the “Pigweed plant response rating” value [11, 24] was 70. For the same molecule, the “Pigweed plant response rating” value [11, 25] was 80, the “Plant response rating, Pigweed” value [11, 26] was 40 and the “Plant response rating, Pigweed” value [11, 25] was 80. The “Barnyardgrass plant response rating” value [12, 24] was 10, the “Barnyardgrass plant response rating” value [12, 25] was 10 and the “Plant response rating, Barnyardgrass” value [12, 26] was 10. The “Plant response rating, Barnyardgrass” value [12, 25] was 30, the “Lambsquarters plant response rating” value [13, 24] was 90 and the “Lambsquarters plant response rating” value [13, 25] was 90. The “Plant response rating, Lambsquarters” value [13, 26] was 50, the “Plant response rating, Lambsquarters” value [13, 25] was 80 and the “Wheat plant response rating” value [14, 24] was 0. For the same molecule, the “Wheat plant response rating” value [14, 25] was 0, the “Plant response rating, Wheat” value [14, 26] was 0 and the “Plant response rating, Wheat” value [14, 25] was 30. For the same molecule, the “Crabgrass plant response rating” value [15, 24] was 0, the “Crabgrass plant response rating” value [15, 25] was 20 and the “Plant response rating, Crabgrass” value [15, 26] was 0. The “Plant response rating, Crabgrass” value [15, 25] was 10, the “Plant response rating, Velvetleaf” value [16, 27] was 45 and the “Plant response rating, Velvetleaf” value [16, 28] was 70. For the same molecule, the “Plant response rating, Velvetleaf” value [16, 29] was 10, the “Plant response rating, Velvetleaf” value [16, 30] was 45 and the “Plant response rating, Pigweed” value [17, 27] was 35. For the same molecule, the “Plant response rating, Pigweed” value [17, 28] was 70, the “Plant response rating, Pigweed” value [17, 29] was 15 and the “Plant response rating, Pigweed” value [17, 30] was 45. For the same molecule, the “Plant response rating, Barnyardgrass” value [18, 27] was 0, the “Plant response rating, Barnyardgrass” value [18, 28] was 0 and the “Plant response rating, Barnyardgrass” value [18, 29] was 0. The “Plant response rating, Barnyardgrass” value [18, 30] was 0, the “Plant response rating, Foxtail, Giant” value [19, 27] was 0 and the “Plant response rating, Foxtail, Giant” value [19, 28] was 0. For the same molecule, the “Plant response rating, Foxtail, Giant” value [19, 29] was 0, the “Plant response rating, Foxtail, Giant” value [19, 30] was 0 and the “Plant response rating, Morningglory” value [20, 27] was 45. The “Plant response rating, Morningglory” value [20, 28] was 75, the “Plant response rating, Morningglory” value [20, 29] was 0 and the “Plant response rating, Morningglory” value [20, 30] was 0. For the same molecule, the “Plant response rating, Crabgrass” value [21, 27] was 0, the “Plant response rating, Crabgrass” value [21, 28] was 5 and the “Plant response rating, Crabgrass” value [21, 29] was 0. For the same molecule, the “Plant response rating, Crabgrass” value [21, 30] was 0, the “Oat, Wild plant response rating” value ([22]; 62 g ai/ha) was 0 and the “Oat, Wild plant response rating” value ([22]; 125 g ai/ha) was 0. The “Blackgrass plant response rating” value ([23]; 62 g ai/ha) was 20 and the “Blackgrass plant response rating” value ([23]; 125 g ai/ha) was 20.
